These are literature values, as cited in US11517536B2, “Pharmaceutical composition comprising pomalidomide” (SYNTHON B.V., priority 2016, dated 2022).

For `Nc1cccc2c1C(=O)N(C1CCC(=O)NC1=O)C2=O` (centres unmarked) [Pomalidomide, 4-amino-2-(2,6-dioxopiperidin-3-yl)isoindole-1,3-dione], the solubility entry was “low”. Besides, where the note is “drug substance, in water”, the solubility in water result is given as “practically insoluble”.
